Test results: patent US5770380A (priority 1996, dated 1998)

Biological target: Horse Cytochrome c (Equus caballus, UniProt P00004)
Test: Micro calorimetry titration of Cytochrome c
Type: binding
Settings: micro calorimetry titration (FIG. 9); read-out: association constant (converted)
From the text: FIG. 9 illustrates a micro calorimetry titration of Cytochrome c with a preferred embodiment of the present invention.
Horse Cytochrome c is an electron-transferring protein with a heme prosthetic group. The size of this protein is 12,384 Dalton and the surface is highly positively charged with lysine and arginine residues. For the X-ray crystal structure of Cytochrome c, see: Bushnell, G. W.; Louie, G. D.; Brayer, G. D. J. Mol. Biol. 1990, 214, 585. NMR titration of Cytochrome c with a preferred embodiment of the invention, designated 1 below, was performed under the condition described in FIG. 8 and two of the hyperfine region protons from heme in Cytochrome c, heme 8-CH3 and heme 3-CH3, were followed. […] The direction and the size of shifts are about the same as those of the titration between Cytochrome c and Cytochrome c peroxydase and peak broadening was also observed in the peroxydase titration. For NMR titration of cytochrome c and cytochrome-c peroxydase, see: Satterlee, J. D.; Moench, S. J.; Erman, J. E. Biochemica et Boiphysica Acta 1987, 912, 87-97. FIG. 8 is consistent with 1:1 binding. [drawing 1] Micro calorimetry titration of Cytochrome c with 1 was also performed (see FIG. 9). The association constant was calculated as 136000M^-1 therefore ΔG=-7.0 kcal/mol. As the enthalpy of the binding event is simulated as -5.6 kcal/mol, the entropy portion should be -1.4 kcal/mol. […]

Chain of Horse Cytochrome c (P00004 whole entry): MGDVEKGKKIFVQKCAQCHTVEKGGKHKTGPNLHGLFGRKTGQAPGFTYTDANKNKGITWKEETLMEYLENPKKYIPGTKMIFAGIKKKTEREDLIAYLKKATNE

CCCCOc1c2cc(C(=O)Nc3cc4cc(c3)C(=O)NCC(=O)N[C@@H](CC(=O)O)C(=O)NCC(=O)N[C@@H](CC(=O)O)C(=O)NC4)cc1Cc1cc(C(=O)Nc3cc4cc(c3)C(=O)NCC(=O)N[C@@H](CC(=O)O)C(=O)NCC(=O)N[C@@H](CC(=O)O)C(=O)NC4)cc(c1OCCCC)Cc1cc(C(=O)Nc3cc4cc(c3)C(=O)NCC(=O)N[C@@H](CC(=O)O)C(=O)NCC(=O)N[C@@H](CC(=O)O)C(=O)NC4)cc(c1OCCCC)Cc1cc(C(=O)Nc3cc4cc(c3)C(=O)NCC(=O)N[C@@H](CC(=O)O)C(=O)NCC(=O)N[C@@H](CC(=O)O)C(=O)NC4)cc(c1OCCCC)C2 [compound 1, Calix[4]arenetetracyclicpeptide1]
Kd: 7.35 µM
